Assays:
[1] = target: dipeptidyl peptidase (DP IV) (UniProt P27487); experiment: Determination of IC50 against DP IV (hydrolysis of Gly-Pro-pNA); format: biochemical, porcine kidney or recombinant human; details: compounds obtained by preparative synthesis
Protocol: Determination of IC50 Against DP IV
Substances are screened for inhibition of dipeptidyl peptidase (DP IV) by their ability to inhibit the hydrolysis of the DP IV specific substrate Glycyl-Prolyl-4-Nitroanilide (Gly-Pro-pNA). All compounds are diluted in DMSO and IC50 will be determined with 11 serial dilutions (1:2) starting with an final concentration of 100 μM. The final DMSO concentration in the assay is 5% (v/v). The method was automated using a Tecan Genesis Freedom liquid handler and a Genius Pro (Tecan) microplate reader.
A stock solution of 0.102 M HEPES is prepared. Ionic strength (I=0.32) is adjusted by KCl and pH (pH 7.6) by KOH.
2.16 mM solution of Gly-Pro-pNA in deionized water is prepared.
All samples are dissolved in DMSO preparing a 10 mM stock solution.
DP IV from porcine kidney (pDP IV) or recombinant human DP IV (rhDP IV) is diluted in HEPES buffer to a final activity of approximately 40-50 μU*ml^−1. The DP IV is stored in a cooling rack (4° C.) on the liquid handler.
The assay may becarried out at room temperature using Freedom liquid handler connected with a Genios Pro microplate reader. Each sample is measured in duplicate. Each sample stock solution is prediluted with DMSO in a ratio of 1:5 in a polypropylen 96-well plate. From this predilution 10 serial (1:2) dilutions in DMSO are prepared. 13.5 μl of the 11 DMSO dilutions and DMSO alone are transferred to the measurement microplate (duplicates) and 86.5 μl water, 100 μl HEPES buffer and 50 μl substrate solution are added to each well. The enzymatic reaction is started by addition of 20 μl enzyme solution to each well, and then the microplate is immediately transferred to the microplate reader.
After short mixing (20 s) the release of 4-Nitroanilin (pNA) is monitored at 405 nm for 30 cycles (approx. 18 min).
Post assay calculations are done by the Magellan (Tecan) and Graphit Software. The linear slopes are calculated for each well and averaged for the duplicates. The residue activities are calculated in relation to a sample containing only solvent instead of inhibitor and expressed in %. Residue activities are plotted against the log of inhibitor concentrations and IC50 is calculated by an 4-parameter fitting ranging from 0 to 100%.

DP IV [2] = target: T1, DP IV (Homo sapiens, UniProt P27487); experiment: Ki and inhibition type, DP IV; format: biochemical; details: compounds obtained by preparative synthesis
T1 sequence (P27487 whole entry): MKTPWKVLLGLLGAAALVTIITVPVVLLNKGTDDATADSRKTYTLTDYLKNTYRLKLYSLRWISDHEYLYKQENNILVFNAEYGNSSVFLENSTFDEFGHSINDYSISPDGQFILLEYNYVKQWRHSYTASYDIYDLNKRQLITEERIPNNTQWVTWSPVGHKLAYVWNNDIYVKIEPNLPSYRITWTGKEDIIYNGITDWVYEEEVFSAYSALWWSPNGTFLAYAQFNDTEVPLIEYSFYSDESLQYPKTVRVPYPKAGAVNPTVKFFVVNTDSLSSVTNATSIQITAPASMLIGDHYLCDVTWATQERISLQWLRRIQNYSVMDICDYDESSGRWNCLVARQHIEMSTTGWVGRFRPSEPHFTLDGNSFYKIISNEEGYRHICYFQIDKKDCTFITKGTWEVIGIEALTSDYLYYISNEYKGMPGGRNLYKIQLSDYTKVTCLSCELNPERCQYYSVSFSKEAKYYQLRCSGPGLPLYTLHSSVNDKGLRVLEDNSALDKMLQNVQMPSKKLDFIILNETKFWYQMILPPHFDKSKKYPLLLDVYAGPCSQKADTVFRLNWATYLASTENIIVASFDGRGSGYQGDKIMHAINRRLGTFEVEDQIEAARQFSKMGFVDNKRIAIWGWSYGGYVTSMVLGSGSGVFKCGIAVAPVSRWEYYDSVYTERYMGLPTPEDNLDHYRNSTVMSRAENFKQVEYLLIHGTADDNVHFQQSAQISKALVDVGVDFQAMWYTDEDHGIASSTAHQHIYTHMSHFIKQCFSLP
Protocol: Measurement of DP IV activities for Ki determination is carried out as described for IC50. For Ki determination samples were analysed in triplicates. 7 serial dilutions of the inhibitor (range calculated from the IC50 determination) in water are analyzed with 4 serial dilutions of the substrate.
Data are analysed by non-linear regression to the inhibitor equations using Graphit software. Ki-value and inhibition type are determined using the inhibitor equation (competitive, partiell competitive, non-competitive) which gives the best fitting results. […]

[3] = system: neuroblastoma cell line SY5Y; experiment: LD50 determination on SY5Y (LDH); format: cell-based; details: 8 serial dilutions, highest concentration 1 mM
Protocol: (§1) After 24 h of cultivation in a 96 well plate (50 000 cells/well) compounds (dissolved in DMSO) are added and cytotoxicity and vitality of the cells are analysed after another 24 h of cultivation using the CytoTox-One Homogenoeous membrane toxicity assay (Promega).
(§2) For cytotoxicity the LDH activity in the cell culture media after 24 h of incubation are analysed. The untreated control is set to 0% cytotoxicity. For the 100% value LDH activity of lysed untreated cells are analysed.
(§3) For viability cell culture media are removed from the cells and all cells are lysed using the lysis buffer. LDH activity is determined and untreated control is set to 100% viability.
(§4) For determination of LD50 the liver carcinoma cell line HEP-G2 and the neuroblastoma cell line SY5Y may be used. The effect of 8 serial dilutions of the compounds (highest concentration 1 mM) is investigated as described above.

DP9 = DP9 (Homo sapiens, UniProt Q86TI2); experiment: DP9 assay; format: biochemical; details: for IC50: Gly Pro-AMC 0.25 mM; for Selectivity DP9(IC50)/DPIV(Ki): ratio IC50 DP9 / Ki DP IV
Sequence of DP9 (Q86TI2 whole entry, species assumed): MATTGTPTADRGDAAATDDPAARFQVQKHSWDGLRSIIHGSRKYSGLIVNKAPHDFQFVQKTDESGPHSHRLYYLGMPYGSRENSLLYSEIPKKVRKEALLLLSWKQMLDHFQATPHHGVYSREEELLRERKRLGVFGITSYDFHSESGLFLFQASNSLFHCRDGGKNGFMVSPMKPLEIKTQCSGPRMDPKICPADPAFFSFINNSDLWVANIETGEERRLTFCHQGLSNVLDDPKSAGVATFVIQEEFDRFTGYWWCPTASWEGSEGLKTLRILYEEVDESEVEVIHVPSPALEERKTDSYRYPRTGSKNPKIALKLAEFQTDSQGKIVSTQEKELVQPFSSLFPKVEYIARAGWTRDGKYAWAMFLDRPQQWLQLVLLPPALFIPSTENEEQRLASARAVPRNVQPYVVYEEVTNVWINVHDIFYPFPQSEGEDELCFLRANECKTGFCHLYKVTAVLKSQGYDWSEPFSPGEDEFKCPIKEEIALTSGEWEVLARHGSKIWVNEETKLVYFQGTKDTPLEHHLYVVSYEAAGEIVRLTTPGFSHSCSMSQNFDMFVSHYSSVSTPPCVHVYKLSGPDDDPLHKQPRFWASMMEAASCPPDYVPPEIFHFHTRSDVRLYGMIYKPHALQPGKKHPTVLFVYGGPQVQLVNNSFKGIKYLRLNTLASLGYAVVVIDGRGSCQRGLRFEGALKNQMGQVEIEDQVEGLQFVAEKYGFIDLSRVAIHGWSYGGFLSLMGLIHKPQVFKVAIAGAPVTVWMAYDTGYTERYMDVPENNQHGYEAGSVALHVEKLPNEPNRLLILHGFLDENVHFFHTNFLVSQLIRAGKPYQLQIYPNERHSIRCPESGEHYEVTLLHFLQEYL
Protocol: (§5) Determination of IC50 values for DPII and DP9 are done similarly as described for DP IV.
For DP9 Gly Pro-AMC is used as substrate in a final concentration of 0.25 mM.

DPII = DPII (Homo sapiens, UniProt Q9UHL4); experiment: DPII assay; format: biochemical; details: for Selectivity DPII(IC50)/DPIV(Ki): ratio IC50 DPII / Ki DP IV; for IC50: sodium acetate buffer pH 5.5, Gly-Pro-AMC 1 mM
Protocol: as §5
For DPII instead of the HEPES buffer a 0.2 M sodium acetate buffer pH 5.5 is used. As substrate Gly-Pro-AMC is used in a final concentration of 1 mM.

Caco-2 monolayer = experiment: Caco-2 transport assay; format: in vitro ADME, human; details: assessment of permeability and transport type
Protocol: (§6) The concentration of compounds in the Caco experiments may be determined from their potency to inhibit recombinant human DP IV.
(§7) Reaction is started by addition of 20 μl rhDP IV and release of pNA was monitored at 405 nm. Samples are analyzed in several dilutions (undiluted, 1:10, 1:[…]). Dilutions are done in the Caco assay buffer. Activity measured with Caco-assay buffer alone is set to 100% and inhibitor concentration is calculated from the dilutions resulting in 20 to 80% inhibition according to the equation for competitive inhibition.
(§8) [formula] • I=inhibitor concentration • v0=velocity of the reaction without inhibitor (Caco assay buffer alone) • vi=velocity of the reaction with inhibitor sample • Ki=Ki-value of the compound • DF=dilution factor of the sample Transport Assay
(§9) The human colon adenocarcinome cell line Caco-2 are grown in 6- or 24-transwell microplates (Costar) for 21 days with MEM-alpha containing 10% FBS and 0.5% Gentamycin (Invitrogen). After 21 days of cultivation integrity of the cell layer are assessed by measurement of the transepitelial electrical resistance.
(§10) Transport measurements are carried out in triplicates at a pH of 7.5. For each compound and direction (apical to basal (a-b), basal to apical (b-a)) two separate experiments are done. Samples are collected from the donor and acceptor compartments at the beginning of the experiment and after 60 min (for 6-well plates, Donor at 0 and 120 min, Acceptor at 15, 30, 60 and 120 min).
(§11) Samples are analyzed in several dilutions for their ability to inhibit human recombinant DP IV and compound concentrations may be calculated using the prior determined Ki-value (see above).
(§12) The permeability coefficient Papp is calculated according to the following equation:
(§13) [formula] • VA=Volume of the acceptor compartment • A=Area of the transwell membrane • t=sampling time • cAt=concentration in the acceptor compartment at sampling time • CDO=concentration in the donor compartment at t=0
(§14) Papp-values>1e-5 cm/s are assessed as good permeable, value<1e-6 cm/s as not permeable. Papp-values in between as medium permeable. Compounds where no significant difference were found between a-b and b-a transport are assessed to be passive transported.

Caco-2 transport assay = format: in vitro ADME, human; details: human, Caco-2, pH 7.5; for Papp A→B: apical to basal; for Papp B→A: basal to apical
Protocol: as §6, §7, §8, §9, §10, §11, §12, §13, §14

[4] = system: liver cell carcinoma cell line Hep-G2; experiment: Cytotoxicity screening and LD50 determination on Hep-G2 (LDH, CytoTox-One); format: cell-based; details: for Cytotox 100 μM (%) HEPG2 / Viability 100 μM (%) HEP-G2: 24 h; for Cytotox 100 μM (%) HEPG2: LDH activity in cell culture media, lysed untreated cells = 100%; for Viability 100 μM (%) HEP-G2: LDH of lysed cells, untreated control = 100%; for Cytotox 100 μM (%) HEPG2 / Viability 100 μM (%) HEP-G2 / Observed cytotox: 100 μM; for Observed cytotox: Hep-G2, observation of the cells; for LD50 Viability HEP-G2 / LD50 cytotox HEP-G2: 8 serial dilutions, highest concentration 1 mM
Protocol: Cytotoxicity of the compounds may be screened using the liver cell carcinoma cell line Hep-G2.
as §1
Three concentrations (100 μM, 2 μM, 40 nM) of each compound are analysed in triplicates. The final DMSO concentration was 1%.
as §2, §3, §4
The cytotoxicity of certain example compounds (in each case prepared by preparative synthesis) was screened using Hep-G2 cells. Compounds were tested in concentrations of 100 μM, 2 μM and 40 nM.

DP IV [5] = target: T1, DP IV; experiment: DP IV inhibition IC50, parallel-synthesis compounds tested directly following synthesis (without purification); format: biochemical; design: IC50 DP4; other: tested directly following parallel synthesis, without purification; compounds of formula (Ib) from parallel synthesis, tested directly following synthesis; details: DP IV inhibition; compounds of formula (Ib) from parallel synthesis, tested directly following synthesis (without purification); read-out: IC50
Method in brief: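 IC50 came from a 4-parameter fit of residual activity (linear 405 nm slopes for pNA release over ~18 min, relative to solvent-only wells). Gly-Pro-pNA was the substrate, cleaved by porcine kidney or recombinant human DP IV at room temperature in HEPES with 5% DMSO; duplicate 1:2 series started at 100 μM final.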

| Structure (SMILES) | IC50 [1] [nM] | Ki (DP IV [2]) [nM] | LD50 Viability SY5Y [3] [mM] | LD50 cytotox SY5Y [3] [mM] | IC50 (DP9) [nM] | Selectivity DP9(IC50)/DPIV(Ki) (DP9) | Selectivity DPII(IC50)/DPIV(Ki) (DPII) | IC50 (DPII) [nM] | Transport (Caco-2 monolayer) | Papp A→B (Caco-2 transport assay) [×10⁻⁶ cm/s] | Papp B→A (Caco-2 transport assay) [×10⁻⁶ cm/s] | Cytotox 100 μM (%) HEPG2 [4] [%] | Viability 100 μM (%) HEP-G2 [4] [%] | Observed cytotox [4] [% spheric] | LD50 Viability HEP-G2 [4] [mM] | LD50 cytotox HEP-G2 [4] [mM] | IC50 (DP IV [5]) [nM] | Ki (DP9) [nM] | Ki (DPII) [nM] |
| --- | --- | --- | --- | --- | --- | --- | --- | --- | --- | --- | --- | --- | --- | --- | --- | --- | --- | --- | --- |
| COc1ccccc1Cn1cnc(-c2ccc(Cl)cc2Cl)c1CN [Example 120b, C-[5-(2,4-dichloro-phenyl)-3-(2-methoxy-benzyl)-3H-imidazol-4-yl]-methylamine] | 261 | 15.8 | 0.10 | 0.16 | 59700 | 3,778 | 1,177 | 18600 | good, passive | 51.2 | 52.8 | 11.6 | 108.9 | 50 | 0.21 | 0.17 | 1900 | – | – |
| COc1cccc(Cn2cnc(-c3ccc(Cl)cc3Cl)c2CN)c1 [Example 59b, C-[5-(2,4-dichloro-phenyl)-3-(3-methoxy-benzyl)-3H-imidazol-4-yl]-methylamine] | 221 | 15.3 | – | – | – | 7,974 | 2,542 | 38900 | good, passive | 49.7 | 38.3 | 1.2 | 116.3 | 10 | – | – | 3700 | – | – |
| NCc1c(-c2ccc(Cl)cc2Cl)ncn1Cc1ccccc1Cl [Example 81b, C-[3-(2-chloro-benzyl)-5-(2,4-dichloro-phenyl)-3H-imidazol-4-yl]-methylamine] | 139 | 19.5 | 0.07 | 0.16 | 38300 | 1,964 | 383 | 7460 | good, active in | 41.9 | 16 | – | – | – | 0.14 | 0.12 | 1000 | 7650 | 2180 |
| NCc1c(-c2ccc(Cl)cc2Cl)ncn1C(CO)c1ccccc1 (centres unmarked) [Example 126b, 2-[5-aminomethyl-4-(2,4-dichloro-phenyl)-imidazol-1-yl]-2-phenyl-ethanol] | 145 | 10.6 | – | – | 70700 | 6,670 | 1,887 | 20000 | good (Papp-values>1e-5 cm/s are assessed as good permeable) | 22.5 | 16.5 | 5.8 | 118.8 | 10 | – | – | – | – | – |
| NCc1c(-c2ccc(Cl)cc2Cl)ncn1Cc1ccccc1F [Example 112b, C-[5-(2,4-dichloro-phenyl)-3-(2-fluoro-benzyl)-3H-imidazol-4-yl]-methylamine] | 195 | 10.5 | – | – | – | 9,714 | 3,514 | 36900 | good, passive | 44.8 | 42.1 | 3.0 | 111.4 | – | – | – | 3700 | – | – |

— US7728146B2, “Enzyme inhibitors” (Probiodrug AG, priority 2006, dated 2010)
